The record followed here is US7094909B2, “HIV protease inhibitors, compositions containing the same, their pharmaceutical uses and materials for their synthesis” (priority 2001, dated 2006).

Each structure is given as a SMILES string. Like-named read-outs stand apart in the source and are kept apart here.

The target in experiment [1] is T1, HIV-1 protease (Q7S mutant form) (Human immunodeficiency virus type 1 group M subtype B, UniProt P04585, Q495S).
T1 construct: made in house
As to the kind of experiment: HIV-1 Protease RET assay. It counts as biochemical. A digest of the protocol:
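Ki values fitted with the Morrison tight-binding equation from steady-state RET cleavage (ex 340, em 490 nm) of 5 μM RE(EDANS)SQNYPIVQK(DABCYL)R. Buffer pH 4.8 acetate, 1M NaCl, 5 mM DTT, 1 mg/ml BSA, 10% DMSO; 2 nM Q7S mutant dimer, 37 °C, 12 min.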

In experiment [2] the test system is HIV-1 (HIV-1 RF, HIV-1 NL4-3) in CEM-SS / MT-2 cells. Nature of the experiment: Cytopathic effect (CPE) inhibition assay (XTT/MTT dye reduction). It counts as cell-based. In outline:
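Readout is XTT reduction (A450, 4 h) after six days of culturing virus-infected (moi 0.025–0.819) or mock-infected CEM-SS/MT-2 cells, 2×10^4 per well, with half-log compound series. Antiviral EC50 and cytotoxic CC50 are relative to uninfected compound-free cells. Therapeutic index is CC50 divided by EC50.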
On the technique in general: Damage to the host cells serves as the signal in cytopathic effect assays.

[3] abbreviates: Ave. Ki (nM), RET assay, Q7S enzyme, Morrison tight binding fit.
The mark [4] stands for this setting: Human immunodeficiency virus 1, NL43, read-out: Ave CPE EC50.
Where [5] appears, read: Human immunodeficiency virus 1, NL43, unit inferred, read-out: EC50.

By Ki is commonly meant the equilibrium dissociation constant of an inhibitor or competing ligand from its target. The EC50 is the concentration needed to bring the measured effect to its halfway point. On to `C#CCOC(=O)N[C@@H](Cc1ccccc1)[C@H](O)C(=O)N1CSC(C)(C)[C@H]1C(=O)NCc1ccncc1` [Example B67, ((1S,2S)-1-Benzyl-3-{5,5-dimethyl-4-[(pyridin-4-ylmethyl)-carbamoyl]-thiazolidin-3-yl}-2-hydroxy-3-oxo-propyl)-carbamic acid prop-2-ynyl ester], for which the Ki in experiment [1] (setting [3]) came to 11.4 nM. The 50% effective concentration (EC50) in experiment [2] (setting [4]) was over 3200 nM.
In the same order, the values of `CCCNC(=O)[C@@H]1CC(F)(F)CN1C(=O)[C@@H](O)[C@H](Cc1ccccc1)NC(=O)COc1c(C)cccc1C` [Example C45, 1-{3-[2-(2,6-Dimethyl-phenoxy)-acetylamino]-2-hydroxy-4-phenyl-butyryl}-4,4-difluoro-pyrrolidine-2-carboxylic acid propylamide] are 3.6 nM and 1580 nM.
`CC1(C)SCN(C(=O)[C@@H](O)[C@H](Cc2ccccc2)NC(=O)[C@@H]2CCCO2)[C@@H]1C(=O)N[C@H]1CCCc2ccccc21`: the affinity in experiment [1] (Ki, unit inferred), expressed as Ki, was 4.3 nM. In experiment [2] (setting [5]), the EC50 turned out to be 1190 nM.
Taken in the same sequence, the figures for `Cc1cccc(C)c1OCC(=O)N[C@@H](Cc1ccccc1)[C@H](O)C(=O)N1CSC(C)(C)[C@H]1C(=O)NCc1ccccc1C(F)(F)F` were 1.4 nM and 1950 nM.
In the case of `Cc1c(O)cccc1C(=O)N[C@@H](Cc1ccccc1)[C@H](O)C(=O)N1CSC(C)(C)[C@H]1C(=O)N1CCSCC1` [Example A33, N-{(1S,2S)-1-Benzyl-3-[(R)-5,5-dimethyl-4-(1-thiomorpholin-4-yl-methanoyl)-thiazolidin-3-yl]-2-hydroxy-3-oxo-propyl}-3-hydroxy-2-methyl-benzamide], the Ki in experiment [1] (setting [3]) amounted to 5.1 nM. Besides, the EC50 in experiment [2] (setting [4]) was found to be 749 nM.
In the same order, the values of `C#CCOC(=O)N[C@@H](Cc1ccccc1)[C@H](O)C(=O)N1CSC(C)(C)[C@H]1C(=O)NCc1ccccc1Cl` [Example B48, {1-Benzyl-3-[4(2-chloro-benzylcarbamoyl)-5,5-dimethyl-thiazolidin-3-yl]-2-hydroxy-3-oxo-propyl}-carbamic acid prop-2-ynyl ester] are 0.83 nM and 1480 nM.
The molecule `Cc1ccccc1CNC(=O)[C@H]1N(C(=O)[C@@H](O)[C@H](Cc2ccccc2)NC(=O)COc2ccccc2C)CSC1(C)C` returned a Ki in experiment [1] (Ki, unit inferred) of 0.89 nM. Further, the half-maximal effective concentration (EC50) in experiment [2] (setting [5]) is 1560 nM.
In experiment [1] (setting [3]), `Cc1c(O)cccc1C(=O)N[C@@H](Cc1ccccc1)[C@H](O)C(=O)N1CSC(C)(C)[C@H]1C(=O)NCc1n[nH]c2ccccc12` [Example A44, 3-(2-Hydroxy-3-{[1-(3-hydroxy-2-methyl-phenyl)-methanoyl]-amino}-4-phenyl-butanoyl)-5,5-dimethyl-thiazolidine-4-carboxylic acid (1H-indazol-3-ylmethyl)-amide] came in with an inhibition constant (Ki) of 1.4 nM. In addition, the EC50 in experiment [2] (setting [4]) stood at 478 nM.
Taken in the same sequence, the figures for `C#CCOC(=O)N[C@@H](Cc1ccccc1)[C@H](O)C(=O)N1CSC(C)(C)[C@H]1C(=O)NCc1ccc(OC)cc1` [Example B64, {(1S,2S)-1-Benzyl-2-hydroxy-3-[4-(4-methoxy-benzylcarbamoyl)-5,5-dimethyl-thiazolidin-3-yl]-3-oxo-propyl}-carbamic acid prop-2-ynyl ester] were 0.53 nM and 1600 nM.
In the case of `CCCC(C)C(=O)NC(Cc1ccccc1)[C@H](O)C(=O)N1CSC(C)(C)C1C(=O)NCc1ccccc1C` (some centres unmarked), in experiment [1] (Ki, unit inferred), the affinity, expressed as Ki, was 12.6 nM. Further, in experiment [2] (setting [5]), the EC50 is at least 3200 nM.
In the same order, the values of `Cc1ccccc1CNC(=O)[C@H]1N(C(=O)[C@@H](O)[C@H](Cc2ccccc2)NC(=O)CBr)CSC1(C)C` are 0.78 nM and at least 1000 nM.
Molecule `Cc1c(O)cccc1C(=O)N[C@@H](Cc1ccccc1)[C@H](O)C(=O)N1CSC(C)(C)[C@H]1C(=O)N1CCOCC1` [Example A30] yielded a Ki in experiment [1] (setting [3]) of 10.9 nM. For the same molecule, the EC50 in experiment [2] (setting [4]) is 586 nM.
On to `Cc1c(O)cccc1C(=O)N[C@@H](Cc1ccccc1)[C@H](O)C(=O)N1CC(F)(F)C[C@H]1C(=O)NCc1ccc2c(c1)OCO2` [Example C11, 4,4-Difluoro-1-[2-hydroxy-3-(3-hydroxy-2-methyl-benzoylamino)-4-phenyl-butyryl]-pyrrolidine-2-carboxylic acid (benzo[1,3]dioxol-5-ylmethyl)-amide], for which, in experiment [1] (setting [3]), the Ki turned out to be 2.8 nM. Further, the EC50 in experiment [2] (setting [4]) is 1310 nM.
In the case of `C#CCOC(=O)N[C@@H](Cc1ccccc1)[C@H](O)C(=O)N1CSC(C)(C)[C@H]1C(=O)NCCC`, the affinity in experiment [1] (Ki, unit inferred), expressed as Ki, was 4.8 nM. Further, the EC50 in experiment [2] (setting [5]) came out at 1350 nM.
With `COc1cc2c(cc1OC)CN(C(=O)[C@H]1N(C(=O)[C@@H](O)[C@H](Cc3ccccc3)NC(=O)c3cccc(O)c3C)CSC1(C)C)CC2`, the Ki in experiment [1] (Ki, unit inferred) came out at 46 nM. The EC50 in experiment [2] (setting [5]) was at least 10000 nM.
Consider `Cc1c(O)cccc1C(=O)N[C@@H](Cc1ccccc1)[C@H](O)C(=O)N1CSC(C)(C)[C@H]1C(=O)NCc1cccnc1` [Example A5, (R)-3-((2S,3S)-2-Hydroxy-3-{[1-(3-hydroxy-2-methyl-phenyl)-methanoyl]-amino}-4-phenyl-butanoyl)-5,5-dimethyl-thiazolidine-4-carboxylic acid (pyridin-3-ylmethyl)-amide], for which the Ki in experiment [1] (setting [3]) came out at 0.2 nM. The EC50 in experiment [2] (setting [4]) is 148 nM.
As for `Cc1ccccc1CNC(=O)[C@H]1N(C(=O)[C@@H](O)[C@H](Cc2ccccc2)NC(=O)OC(C)C)CSC1(C)C` [Example B16, {(S)-1-Benzyl-3-[5,5-dimethyl-4-(2-methyl-benzylcarbamoyl)-thiazolidin-3-yl]-2-hydroxy-3-oxo-propyl}-carbamic acid isopropyl ester], the Ki in experiment [1] (setting [3]) amounted to 2.6 nM. The EC50 in experiment [2] (setting [4]) worked out at 1570 nM.
Taken in the same sequence, the figures for `Cc1ccccc1CNC(=O)[C@H]1N(C(=O)[C@@H](O)[C@H](Cc2ccccc2)NC(=O)CSc2nc[nH]n2)CSC1(C)C` [Example B4, 3-{2-Hydroxy-4-phenyl-3-[2-(2H-[1,2,4t]triazol-3-ylsufanyl)-ethanoylamino]-butanoyl}5,5-dimethyl-thiazolidine-4-carboxylic acid-2-methyl-benzylamide] were 3 nM and 707 nM.
Molecule `Cc1ccccc1CNC(=O)[C@H]1N(C(=O)[C@@H](O)C(Cc2ccccc2)NC(=O)CNc2c(C)cccc2C)CSC1(C)C` (some centres unmarked) showed a Ki in experiment [1] (Ki, unit inferred) of 2.3 nM. In addition, the EC50 in experiment [2] (setting [5]) amounted to 1220 nM.
In the case of `Cc1ccc(C(=O)N[C@@H](Cc2ccccc2)[C@H](O)C(=O)N2CSC(C)(C)[C@H]2C(=O)NCc2cccs2)c(C)c1O`, affinity in experiment [1] (Ki, unit inferred) was put at a Ki of 0.39 nM. In addition, the EC50 in experiment [2] (setting [5]) amounted to 332 nM.
For `CC(=O)Oc1cccc(C(=O)N[C@@H](CSc2ccccc2)[C@H](O)CN2C[C@H]3CCCC[C@H]3C[C@H]2C(=O)NCc2ccccc2C)c1C`, in experiment [1] (Ki, unit inferred), affinity was put at a Ki of 109 nM. For the same molecule, in experiment [2] (setting [5]), the EC50 was 672 nM.
As for `C=CCNC(=O)[C@H]1N(C(=O)[C@@H](O)[C@H](Cc2ccccc2)NC(=O)O[C@H]2CCOC2)CSC1(C)C` [Example B22, [(1S,2S)-3-((R)-4-Allylcarbamoyl-5,5-dimethyl-thiazolidin-3-yl)-1-benzyl-2-hydroxy-3-oxo-propyl]-carbamic acid (S)-(tetrahydro-furan-3-yl) ester], in experiment [1] (setting [3]), the Ki amounted to 12 nM. For the same molecule, the EC50 in experiment [2] (setting [4]) is 246 nM.
The molecule `Cc1c(O)cccc1C(=O)N[C@@H](Cc1ccccc1)[C@H](O)C(=O)N1CSC(C)(C)[C@H]1C(=O)NC[C@@H]1CCCO1` [Example A37, (R)-3-((2S,3S)-2-Hydroxy-3-{[1-(3-hydroxy-2-methyl-phenyl)-methanoyl]-amino}-4-phenyl-butanoyl)-5,5-dimethyl-thiazolidine-4-carboxylic acid (tetrahydro-furan-2-ylmethyl)-amide] had a Ki in experiment [1] (setting [3]) of 3.7 nM. Further, the EC50 in experiment [2] (setting [4]) was determined as 416 nM.
Take `Cc1ccccc1C(=O)N[C@@H](Cc1ccccc1)[C@H](O)C(=O)N1CSC(C)(C)[C@H]1C(=O)N[C@H]1CCc2ccccc21` [Example B78, (R)-3-{(2S,3S)-2-Hydroxy-4-phenyl-3-[(1-o-tolyl-methanoyl)-amino]-butanoyl}-5,5-dimethyl-thiazolidine-4-carboxylic acid (S)-indan-1-ylamide]: the Ki in experiment [1] (setting [3]) stood at 0.18 nM. Further, the EC50 in experiment [2] (setting [4]) came out at 557 nM.
For `CC1(C)SCN(C(=O)[C@@H](O)[C@H](Cc2ccccc2)NC(=O)CSc2nc[nH]n2)[C@@H]1C(=O)N[C@H]1CCc2ccccc21`, in experiment [1] (Ki, unit inferred), the inhibition constant Ki stood at 3.9 nM. The EC50 in experiment [2] (setting [5]) was determined as 1230 nM.
Taken in the same sequence, the figures for `Cc1ccccc1CNC(=O)[C@H]1N(C(=O)[C@@H](O)[C@H](Cc2ccccc2)NC(=O)[C@@H](NC(=O)c2ccccn2)C(C)C)CSC1(C)C` were at most 0.1 nM and 126 nM.
In experiment [1] (setting [3]), `CCC(C)C(=O)NC(Cc1ccccc1)C(O)C(=O)N1CSC(C)(C)[C@H]1C(=O)NCc1ccccc1C` (stereo partly drawn) [Example B65, 3-[(2S,3S)-2-Hydroxy-3-((S)-2-methyl-butyrylamino)-4-phenyl-butyryl]-5,5-dimethyl-thiazolidine-4-carboxylic acid 2-methyl-benzylamide] yielded an inhibition constant (Ki) of 4.9 nM. The EC50 in experiment [2] (setting [4]) worked out at 1640 nM.
In the same order, the values of `C=CCOC(=O)N[C@@H](Cc1ccccc1)[C@H](O)C(=O)N1CSC(C)(C)[C@H]1C(=O)NCc1ccccc1Cl` [Example B47, {(1S,2S)-1-Benzyl-3-[(R)-4(2-chloro-benzylcarbamoyl)-5,5-dimethyl-thiazolidin-3-yl]-2-hydroxy-3-oxo-propyl}-carbamic acid allyl ester] are 1.9 nM and 1480 nM.
